Experimental data taken from US4159328A, “Tetrahydro-1,3,5-thiadiazin-4-one derivative” (Nihon Nohyaku Co., Ltd., priority 1977, dated 1979).

Tests used:
[1] = tested on: larvae of brown planthopper (Nilaparvata lugens Stahl); assay: Test Example 1: insecticidal activity against larvae of brown planthopper; type: in vivo; details: 120 h, third-instar larvae, 25° C., 5 days after treatment
Experimental: Insecticidal activity against larvae of brown planthopper (Nilaparvata lugens Stahl).
Testing method: Five rice seedlings of the 1.5 leaf age were dipped in a test composition of 400 ppm concentration for 30 seconds. After air-drying, the seedlings were placed in a glass tube containing 1 ml of water and infested with five third-instar larvae of brown planthopper. The glass tube was left standing in a constant temperature cabinet at 25° C. and 5 or 7 days after the treatment, dead-and-survival was observed. Mortality was calculated from the results of 3-replication test.

[2] = tested on: two-spotted spider mite (Tetranychus urticae Koch); assay: Test Example 3: activity to two-spotted spider mite; type: in vivo; details: 120 h, 1,000 ppm, 5 days after treatment
Excerpt: Activity to two-spotted spider mite (Tetranychus urticae Koch).
Testing method: Two-spotted spider mites were set free on the pot-planted soybean in a greenhouse. On the next day, a test composition of 1,000 ppm concentration was sprayed over the soybean by means of a spray gun. Two days or five days after the treatment, dead-and-survival was inspected to calculate the mortality.

| Compound | mortality at 400 ppm [1] [%] | mortality at 1000 ppm [2] [%] |
| --- | --- | --- |
| CCCCCCN1C(=O)N(c2cccc(Cl)c2)CSC1=NC(C)C [Compound 234] | 100 | – |
| COc1ccccc1N1CSC(=NC(C)(C)C)N(C(C)C)C1=O [Compound 360] | 100 | – |
| CCC(C)N1C(=O)N(c2ccc(C)cc2C)CSC1=NC(C)(C)C (centres unmarked) [Compound 380] | 100 | 100 |
| CC(C)N=C1SCN(c2cc(Cl)cc(Cl)c2)C(=O)N1Cc1ccccc1 [Compound 408, 2-Isopropylimino-3-benzyl-5-(3,5-dichloro-phenyl)-tetrahydro-1,3,5-thiadiazin-4-one] | – | 100 |
| CN=C1SCN(c2ccc(C)cc2C)C(=O)N1C [Compound 376] | 60 | 100 |
| CCC(C)N1C(=O)N(c2cccc(C)c2C)CSC1=NC(C)(C)C (centres unmarked) [Compound 385] | 100 | 100 |
| CC(C)N=C1SCN(c2cc(Cl)cc(Cl)c2)C(=O)N1C(C)C [Compound 406] | 80 | 60 |
| C=CCN1C(=O)N(c2ccccc2CC)CSC1=NC(C)C [Compound 336] | 100 | 100 |
| CC(C)N1C(=O)N(c2cc(Cl)ccc2Cl)CSC1=NC(C)(C)C [Compound 427] | 100 | 100 |
| CC(C)N=C1SCN(c2cccc(Cl)c2)C(=O)N1C1CCCC1 [Compound 233] | 100 | 100 |
| CCN1C(=O)N(c2ccccc2Cl)CSC1=NC(C)(C)C [Compound 241] | 100 | 70 |
| CCc1ccccc1N1CSC(=NC(C)(C)C)N(C(C)CC)C1=O (centres unmarked) [Compound 339, 2-t-butylimino-3-s-butyl-5-(o-ethylphenyl)-tetrahydro-1,3,5-thiadiazin-4-one] | 100 | – |
| CCOCCN1C(=O)N(c2ccccc2)CSC1=NC(C)(C)C [Compound 182] | 70 | – |
| CCC(C)N1C(=O)N(c2ccc(OC(C)C)cc2)CSC1=NC(C)(C)C (centres unmarked) [Compound 374, 2-t-butylimino-3-s-butyl-5-(p-isopropoxyphenyl)-tetrahydro-1,3,5-thiadiazin-4-one] | 80 | 100 |
| CCC(C)N1C(=O)N(c2ccccc2C(C)C)CSC1=NC(C)(C)C (centres unmarked) [Compound 344] | 100 | – |
| Cc1ccccc1N1CSC(=NC2CCCCC2)N(C(C)C)C1=O [Compound 305] | 95 | 70 |
| Cc1ccc(N2CSC(=NC(C)(C)C)N(C(C)C)C2=O)c(C)c1 [Compound 379, 2-t-butylimino-3-isopropyl-5-(2,4-dimethylphenyl)-tetrahydro-1,3,5-thiadiazin-4-one] | 100 | 100 |
| CC(C)N1C(=O)N(c2ccc(Cl)c(Cl)c2)CSC1=NC1CCCCC1 [Compound 425] | 60 | 100 |
| Cc1cccc(N2CSC(=NC(C)(C)C)N(C(C)C)C2=O)c1C [Compound 384, 2-t-butylimino-3-isopropyl-5-(2,3-dimethylphenyl)-tetrahydro-1,3,5-thiadiazin-4-one] | 100 | 100 |
| CCN1C(=O)N(c2ccccc2C)CSC1=NC(C)(C)C [Compound 299] | 100 | 100 |

| Compound | mortality at 400 ppm [1] [%] | mortality at 1000 ppm [2] [%] |
| --- | --- | --- |
| CC(C)N=C1SCN(c2ccc(OC(C)C)cc2)C(=O)N1C(C)C [Compound 372, 2-isopropylimino-3-isopropyl-5-(p-isopropoxyphenyl)-tetrahydro-1,3,5-thiadiazin-4-one] | 60 | 100 |
| COCCCN1C(=O)N(c2ccccc2Cl)CSC1=NC(C)(C)C [Compound 258] | 100 | 100 |
| CCc1ccc(N2CSC(=NC(C)(C)C)N(C(C)CC)C2=O)cc1 (centres unmarked) [Compound 334] | 100 | – |
| CC(C)N1C(=O)N(c2cc(Cl)cc(Cl)c2)CSC1=NC(C)(C)C [Compound 407] | 100 | 100 |
| CC(C)N=C1SCN(c2ccc(OC(C)C)cc2)C(=O)N1C [Compound 370, 2-Isopropylimino-3-methyl-5-(p-isopropoxyphenyl)-tetrahydro-1,3,5-thiadiazin-4-one] | – | 100 |
| CCN1C(=O)N(c2ccc(Cl)c(Cl)c2)CSC1=NCC(C)C [Compound 419] | – | 100 |
| CCN=C1SCN(c2c(C)cccc2C)C(=O)N1CC [Compound 390] | 60 | 80 |
| CC(C)N=C1NC(=O)N(c2ccc(F)cc2)CS1 [Compound 275] | 100 | – |
| CC(C)Oc1ccc(N2CSC(=NC(C)(C)C)N(C(C)C)C2=O)cc1 [Compound 373] | 80 | 100 |
| CC(C)N=C1SCN(c2ccccc2)C(=O)N1c1ccc(F)cc1 [Compound 167] | 70 | – |
| Cc1cccc(C)c1N1CSC(=NC(C)(C)C)N(C(C)C)C1=O [Compound 388, 2-t-butylimino-3-isopropyl-5-(2,6-dimethylphenyl)tetrahydro-1,3,5-thiadiazin-4-one] | 100 | 100 |
| CC(C)(C)N=C1NC(=O)N(c2ccc(F)cc2)CS1 [Compound 276] | 100 | – |
| Cc1ccc(N2CSC(=NC(C)C)N(C(C)C)C2=O)c(C)c1 [Compound 378, 2-isopropylimino-3-isopropyl-5-(2,4-dimethylphenyl)-tetrahydro-1,3,5-thiadiazin-4-one] | 100 | 100 |
| Cc1ccccc1N1CSC(=NC(C)C)N(C)C1=O [Compound 297] | 100 | 100 |
| CC(C)(C)N=C1SCN(c2ccccc2)C(=O)N1Cc1ccccc1 [Compound 159] | 80 | – |
| C=CCN=C1SCN(c2c(CC)cccc2CC)C(=O)N1CC=C [Compound 394] | 70 | 80 |
| COCCN1C(=O)N(c2ccccc2)CSC1=NC(C)C [Compound 179] | 90 | – |
| CN=C1SCN(c2cccc(C)c2C)C(=O)N1C [Compound 381] | 60 | 70 |
| CCc1ccc(N2CSC(=NC(C)C)N(C(C)C)C2=O)cc1 [Compound 332] | 100 | – |
| CCCN1C(=O)N(c2ccc(OC)cc2)CSC1=NC1CCCCC1 [Compound 354] | 100 | 100 |

| Compound | mortality at 400 ppm [1] [%] | mortality at 1000 ppm [2] [%] |
| --- | --- | --- |
| CC(C)N1C(=O)N(c2ccc(Cl)c(Cl)c2)CSC1=NC(C)(C)C [Compound 416, 2-t-Butylimino-3-isopropyl-5-(3,4-dichlorophenyl)-tetrahydro-1,3,5-thiadiazin-4-one] | 100 | 100 |
| CCC(C)N1C(=O)N(c2ccc(Cl)cc2Cl)CSC1=NC(C)(C)C (centres unmarked) [Compound 401] | 100 | 70 |
| COc1ccc(N2CSC(=NC(C)C)N(c3ccc(Cl)c(Cl)c3)C2=O)cc1 [Compound 359] | – | 100 |
| CCc1ccccc1N1CSC(=NC)N(C)C1=O [Compound 335] | 80 | – |
| CC(C)N=C1SCN(c2cccc(Cl)c2)C(=O)N1C(C)c1ccccc1 (centres unmarked) [Compound 237] | 100 | 100 |
| CCN1C(=O)N(c2cccc(C)c2C)CSC1=NC1CCCCC1 [Compound 382, 2-cyclohexylimino-3-ethyl-5-(2,3-dimethylphenyl)tetrahydro-1,3,5-thiadiazin-4-one] | 80 | 100 |
| CCN=C1SCN(c2ccc(OC(C)C)cc2)C(=O)N1CC [Compound 371] | 75 | 100 |
| C=CCN=C1SCN(c2ccc(F)cc2)C(=O)N1C [Compound 289] | 100 | 100 |
| CCCCCCN1C(=O)N(c2ccccc2C)CSC1=NC(C)C [Compound 304] | 100 | 100 |
| CC(C)N=C1SCN(c2cccc(Cl)c2Cl)C(=O)N1C(C)C [Compound 402] | 80 | 100 |
| C=CCN1C(=O)N(c2ccc(OC)cc2)CSC1=NC(C)C [Compound 350] | 100 | 100 |
| CCC(C)N=C1SCN(c2ccc(Cl)cc2Cl)C(=O)N1C(C)CC (centres unmarked) [Compound 400] | 100 | 70 |
| C=CCN1C(=O)N(c2ccccc2Cl)CSC1=NC(C)(C)C [Compound 243] | 100 | – |
| CC(C)N1C(=O)N(c2ccccc2Cl)CSC1=NC1CCCCC1 [Compound 252, 2-Cyclohexylimino-3-isopropyl-5-(o-chlorophenyl)-tetrahydro-1,3,5-thiadiazin-4-one] | 100 | – |
| CCc1ccccc1N1CSC(=NC(C)(C)C)N(C(C)C)C1=O [Compound 338] | 100 | – |
| COCCN1C(=O)N(c2cccc(Cl)c2)CSC1=NC(C)(C)C [Compound 229] | 100 | – |
| CCN=C1SCN(c2ccccc2C)C(=O)N1CC [Compound 298] | – | 100 |
| CC(C)c1ccccc1N1CSC(=NC(C)(C)C)N(C(C)C)C1=O [Compound 343, 2-t-Butylimino-3-isopropyl-5-(o-isopropyl)-phenyl-tetrahydro-1,3,5-thiadiazin-4-one] | 100 | – |
| CC(C)N=C1SCN(c2ccccc2C(C)C)C(=O)N1C(C)C [Compound 342] | 100 | – |
| CCC(C)N=C1SCN(c2ccccc2Cl)C(=O)N1CC(C)C (centres unmarked) [Compound 253] | 80 | – |
